pIC50: −log10 of the molar value.
System: 873145-292-R-J1-PDC complex spheroid viability
Experiment: Anticancer human tumor 873145-292-R-J1-PDC patient-derived renal clear cell carcinoma cell line growth inhibition [POLQ]
Conditions: for pIC50: curve of first compound; for viability, T/C: stronger effect = lower value
Outline: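 Three-cell-type spheroids modelling solid tumor plus stroma served as the readout system; POL inhibitors were tested individually and in combination, concentration ranges set by clinical Cmax where known.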

[1] = second compound 0.0316 µM, first compound 0.00316 µM
[2] = second compound 0.0316 µM, first compound 0.01 µM
[3] = second compound 0.0316 µM, first compound 0.0316 µM
[4] = second compound 0.0316 µM, first compound 0.1 µM
[5] = second compound 0.0316 µM, first compound 0.316 µM
[6] = second compound 0.0316 µM, first compound 1 µM
[7] = second compound 0.1 µM, first compound 0.00316 µM
[8] = second compound 0.1 µM, first compound 0.01 µM
[9] = second compound 0.1 µM, first compound 0.0316 µM
[10] = second compound 0.1 µM, first compound 0.1 µM
[11] = second compound 0.1 µM, first compound 0.316 µM
[12] = second compound 0.1 µM, first compound 1 µM
[13] = second compound 0.316 µM, first compound 0.00316 µM
[14] = second compound 0.316 µM, first compound 0.01 µM
[15] = second compound 0.316 µM, first compound 0.0316 µM
[16] = second compound 0.316 µM, first compound 0.1 µM
[17] = second compound 0.316 µM, first compound 0.316 µM
[18] = second compound 0.316 µM, first compound 1 µM
[19] = second compound 1 µM, first compound 0.00316 µM
[20] = second compound 1 µM, first compound 0.01 µM
[21] = second compound 1 µM, first compound 0.0316 µM
[22] = second compound 1 µM, first compound 0.1 µM
[23] = second compound 1 µM, first compound 0.316 µM
[24] = second compound 1 µM, first compound 1 µM
[25] = second compound 3.16 µM, first compound 0.00316 µM
[26] = second compound 3.16 µM, first compound 0.01 µM
[27] = second compound 3.16 µM, first compound 0.0316 µM
[28] = second compound 3.16 µM, first compound 0.1 µM
[29] = second compound 3.16 µM, first compound 0.316 µM
[30] = second compound 3.16 µM, first compound 1 µM
[31] = second compound 10 µM, first compound 0.00316 µM
[32] = second compound 10 µM, first compound 0.01 µM
[33] = second compound 10 µM, first compound 0.0316 µM
[34] = second compound 10 µM, first compound 0.1 µM
[35] = second compound 10 µM, first compound 0.316 µM
[36] = second compound 10 µM, first compound 1 µM
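Note: spheroids exposed to compounds for 7 days before viability readout.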
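Throughout, for viability, T/C: luminescence signal used as surrogate for viable cell content; 100% = DMSO vehicle control viability.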

Structure (SMILES): COc1cccc(OCCCN)c1-c1cc(Nc2cnc(C#N)cn2)n[nH]1 + COC1C(OC(N)=O)C(O)C(Oc2ccc3c(O)c(NC(=O)c4ccc(O)c(CC=C(C)C)c4)c(=O)oc3c2C)OC1(C)C
- pIC50 (second compound 0.0316 µM): < 6.00
- pIC50 (second compound 0.1 µM): < 6.00
- pIC50 (second compound 0.316 µM): < 6.00
- pIC50 (second compound 1 µM): < 6.00
- pIC50 (second compound 3.16 µM): < 6.00
- pIC50 (second compound 10 µM): < 6.00
- viability, T/C [1]: 102%
- viability, T/C [2]: 82.4%
- viability, T/C [3]: 62.8%
- viability, T/C [4]: 61.3%
- viability, T/C [5]: 61%
- viability, T/C [6]: 68.7%
- viability, T/C [7]: 106%
- viability, T/C [8]: 93.8%
- viability, T/C [9]: 71.1%
- viability, T/C [10]: 71.5%
- viability, T/C [11]: 62.1%
- viability, T/C [12]: 72.3%
- viability, T/C [13]: 104%
- viability, T/C [14]: 84.8%
- viability, T/C [15]: 64.7%
- viability, T/C [16]: 57.8%
- viability, T/C [17]: 71.1%
- viability, T/C [18]: 62.1%
- viability, T/C [19]: 97.9%
- viability, T/C [20]: 76.3%
- viability, T/C [21]: 62.5%
- viability, T/C [22]: 62.4%
- viability, T/C [23]: 58.7%
- viability, T/C [24]: 72.9%
- viability, T/C [25]: 108%
- viability, T/C [26]: 72%
- viability, T/C [27]: 71.9%
- viability, T/C [28]: 63.8%
- viability, T/C [29]: 68.4%
- viability, T/C [30]: 68.7%
- viability, T/C [31]: 90.8%
- viability, T/C [32]: 80%
- viability, T/C [33]: 73.1%
- viability, T/C [34]: 62.6%
- viability, T/C [35]: 66.1%
- viability, T/C [36]: 78.3%

Structure (SMILES): Cn1ncnc1[C@H]1c2n[nH]c(=O)c3cc(F)cc(c23)N[C@@H]1c1ccc(F)cc1 + COC1C(OC(N)=O)C(O)C(Oc2ccc3c(O)c(NC(=O)c4ccc(O)c(CC=C(C)C)c4)c(=O)oc3c2C)OC1(C)C
- pIC50 (second compound 0.0316 µM): < 7.00
- pIC50 (second compound 0.1 µM): < 7.00
- pIC50 (second compound 0.316 µM): < 7.00
- pIC50 (second compound 1 µM): < 7.00
- pIC50 (second compound 3.16 µM): < 7.00
- pIC50 (second compound 10 µM): < 7.00
- viability, T/C (second compound 0.0316 µM, first compound 0.000316 µM): 98.5%
- viability, T/C (second compound 0.0316 µM, first compound 0.001 µM): 102%
- viability, T/C [1]: 87.2%
- viability, T/C [2]: 94.8%
- viability, T/C [3]: 102%
- viability, T/C [4]: 95.9%
- viability, T/C (second compound 0.1 µM, first compound 0.000316 µM): 101%
- viability, T/C (second compound 0.1 µM, first compound 0.001 µM): 102%
- viability, T/C [7]: 96.2%
- viability, T/C [8]: 85.9%
- viability, T/C [9]: 99.5%
- viability, T/C [10]: 84.2%
- viability, T/C (second compound 0.316 µM, first compound 0.000316 µM): 102%
- viability, T/C (second compound 0.316 µM, first compound 0.001 µM): 98.7%
- viability, T/C [13]: 102%
- viability, T/C [14]: 93.1%
- viability, T/C [15]: 94.8%
- viability, T/C [16]: 91.6%
- viability, T/C (second compound 1 µM, first compound 0.000316 µM): 103%
- viability, T/C (second compound 1 µM, first compound 0.001 µM): 99.3%
- viability, T/C [19]: 95.6%
- viability, T/C [20]: 103%
- viability, T/C [21]: 94.5%
- viability, T/C [22]: 89.8%
- viability, T/C (second compound 3.16 µM, first compound 0.000316 µM): 101%
- viability, T/C (second compound 3.16 µM, first compound 0.001 µM): 97.7%
- viability, T/C [25]: 108%
- viability, T/C [26]: 89.3%
- viability, T/C [27]: 98.8%
- viability, T/C [28]: 99.3%
- viability, T/C (second compound 10 µM, first compound 0.000316 µM): 98.9%
- viability, T/C (second compound 10 µM, first compound 0.001 µM): 95%
- viability, T/C [31]: 104%
- viability, T/C [32]: 90.9%
- viability, T/C [33]: 95.2%
- viability, T/C [34]: 94.9%

Structure (SMILES): O=C(c1cc(Cc2n[nH]c(=O)c3ccccc23)ccc1F)N1CCN(C(=O)C2CC2)CC1 + COC1C(OC(N)=O)C(O)C(Oc2ccc3c(O)c(NC(=O)c4ccc(O)c(CC=C(C)C)c4)c(=O)oc3c2C)OC1(C)C
- pIC50 (second compound 0.0316 µM): < 5.00
- pIC50 (second compound 0.1 µM): < 5.00
- pIC50 (second compound 0.316 µM): < 5.00
- pIC50 (second compound 1 µM): < 5.00
- pIC50 (second compound 3.16 µM): < 5.00
- pIC50 (second compound 10 µM): < 5.00
- viability, T/C [3]: 112%
- viability, T/C [4]: 94.8%
- viability, T/C [5]: 106%
- viability, T/C [6]: 97.2%
- viability, T/C (second compound 0.0316 µM, first compound 3.16 µM): 109%
- viability, T/C (second compound 0.0316 µM, first compound 10 µM): 103%
- viability, T/C [9]: 117%
- viability, T/C [10]: 94.9%
- viability, T/C [11]: 90.8%
- viability, T/C [12]: 96.2%
- viability, T/C (second compound 0.1 µM, first compound 3.16 µM): 92.6%
- viability, T/C (second compound 0.1 µM, first compound 10 µM): 100%
- viability, T/C [15]: 106%
- viability, T/C [16]: 97.5%
- viability, T/C [17]: 93.2%
- viability, T/C [18]: 90.8%
- viability, T/C (second compound 0.316 µM, first compound 3.16 µM): 103%
- viability, T/C (second compound 0.316 µM, first compound 10 µM): 93.2%
- viability, T/C [21]: 94.5%
- viability, T/C [22]: 104%
- viability, T/C [23]: 100%
- viability, T/C [24]: 87.2%
- viability, T/C (second compound 1 µM, first compound 3.16 µM): 101%
- viability, T/C (second compound 1 µM, first compound 10 µM): 103%
- viability, T/C [27]: 108%
- viability, T/C [28]: 107%
- viability, T/C [29]: 106%
- viability, T/C [30]: 94.2%
- viability, T/C (second compound 3.16 µM, first compound 3.16 µM): 99.5%
- viability, T/C (second compound 3.16 µM, first compound 10 µM): 96.2%
- viability, T/C [33]: 88%
- viability, T/C [34]: 103%
- viability, T/C [35]: 96.3%
- viability, T/C [36]: 92.2%
- viability, T/C (second compound 10 µM, first compound 3.16 µM): 107%
- viability, T/C (second compound 10 µM, first compound 10 µM): 97.2%

Source: PubChem BioAssay AID1963834 (Molecular Pharmacology Branch, DTP, NCI, 2024)
